What was measured:
Experiment in all cases: pIC50, kinobeads binding competition
[1] = target: BTK (UniProt Q06187); conditions: cell material: Lysate mix
Procedure, shortened: (§1)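 Nine compound concentrations were tested, starting at 30 μM in 1:4 steps on live Jurkat cells (60 min, 37 °C, then lysis) or in 1:5 steps on Jurkat lysate or a 1:1:1:1 HEK293/K-562/HepG2/placenta lysate mix (60 min, 4 °C). Kinobeads-bound proteins were digested and quantified with TMT10 LC-MS/MS. pIC50 values are from logistic dose-response fits in the R drc package of fold changes relative to vehicle, from biological duplicates.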

[2] = target: CDK4 (UniProt P11802); conditions: cell material: Lysate mix
Sequence of CDK4 (P11802 whole entry): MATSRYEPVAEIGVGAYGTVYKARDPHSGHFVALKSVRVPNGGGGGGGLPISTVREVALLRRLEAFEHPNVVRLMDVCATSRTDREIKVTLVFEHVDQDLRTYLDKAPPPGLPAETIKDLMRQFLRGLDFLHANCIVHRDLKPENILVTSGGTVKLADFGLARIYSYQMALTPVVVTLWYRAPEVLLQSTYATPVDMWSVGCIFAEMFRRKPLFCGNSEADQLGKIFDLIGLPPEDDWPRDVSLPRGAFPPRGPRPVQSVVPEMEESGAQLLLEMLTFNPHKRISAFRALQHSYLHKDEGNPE
Procedure, shortened: as §1

[3] = target: CLK4 (UniProt Q9HAZ1)
Procedure, shortened: as §1

[4] = target: CSF1R (UniProt P07333); conditions: cell material: Lysate mix
Sequence of CSF1R (P07333 whole entry): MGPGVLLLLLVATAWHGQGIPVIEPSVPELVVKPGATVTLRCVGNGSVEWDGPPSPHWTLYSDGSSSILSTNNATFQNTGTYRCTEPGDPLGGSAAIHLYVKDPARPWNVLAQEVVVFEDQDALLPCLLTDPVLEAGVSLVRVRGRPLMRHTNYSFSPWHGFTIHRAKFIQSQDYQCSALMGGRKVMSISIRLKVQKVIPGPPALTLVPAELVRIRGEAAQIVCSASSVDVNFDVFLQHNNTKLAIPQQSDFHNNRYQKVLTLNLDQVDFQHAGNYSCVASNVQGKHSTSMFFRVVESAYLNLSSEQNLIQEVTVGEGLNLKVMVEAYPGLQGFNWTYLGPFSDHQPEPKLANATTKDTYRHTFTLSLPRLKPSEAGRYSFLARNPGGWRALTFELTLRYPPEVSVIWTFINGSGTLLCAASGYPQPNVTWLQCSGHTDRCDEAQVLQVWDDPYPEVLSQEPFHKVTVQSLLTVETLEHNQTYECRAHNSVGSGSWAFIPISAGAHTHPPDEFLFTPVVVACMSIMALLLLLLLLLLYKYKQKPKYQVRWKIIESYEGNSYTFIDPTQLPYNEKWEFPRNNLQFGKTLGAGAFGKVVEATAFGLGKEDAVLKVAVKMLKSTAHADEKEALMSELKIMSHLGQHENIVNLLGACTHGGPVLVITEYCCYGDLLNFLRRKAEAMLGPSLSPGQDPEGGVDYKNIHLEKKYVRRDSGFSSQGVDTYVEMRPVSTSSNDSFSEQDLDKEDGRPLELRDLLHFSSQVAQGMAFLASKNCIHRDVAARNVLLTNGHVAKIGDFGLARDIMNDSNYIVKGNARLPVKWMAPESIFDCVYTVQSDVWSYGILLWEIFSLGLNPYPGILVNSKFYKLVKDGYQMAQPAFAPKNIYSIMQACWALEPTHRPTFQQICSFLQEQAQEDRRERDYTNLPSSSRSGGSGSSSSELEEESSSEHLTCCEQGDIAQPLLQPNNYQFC
Procedure, shortened: as §1

[5] = target: EGFR (UniProt P00533); conditions: cell material: Lysate mix
Procedure, shortened: as §1

[6] = target: FGFR1 (UniProt P11362)
Sequence of FGFR1 (P11362 whole entry, looked up): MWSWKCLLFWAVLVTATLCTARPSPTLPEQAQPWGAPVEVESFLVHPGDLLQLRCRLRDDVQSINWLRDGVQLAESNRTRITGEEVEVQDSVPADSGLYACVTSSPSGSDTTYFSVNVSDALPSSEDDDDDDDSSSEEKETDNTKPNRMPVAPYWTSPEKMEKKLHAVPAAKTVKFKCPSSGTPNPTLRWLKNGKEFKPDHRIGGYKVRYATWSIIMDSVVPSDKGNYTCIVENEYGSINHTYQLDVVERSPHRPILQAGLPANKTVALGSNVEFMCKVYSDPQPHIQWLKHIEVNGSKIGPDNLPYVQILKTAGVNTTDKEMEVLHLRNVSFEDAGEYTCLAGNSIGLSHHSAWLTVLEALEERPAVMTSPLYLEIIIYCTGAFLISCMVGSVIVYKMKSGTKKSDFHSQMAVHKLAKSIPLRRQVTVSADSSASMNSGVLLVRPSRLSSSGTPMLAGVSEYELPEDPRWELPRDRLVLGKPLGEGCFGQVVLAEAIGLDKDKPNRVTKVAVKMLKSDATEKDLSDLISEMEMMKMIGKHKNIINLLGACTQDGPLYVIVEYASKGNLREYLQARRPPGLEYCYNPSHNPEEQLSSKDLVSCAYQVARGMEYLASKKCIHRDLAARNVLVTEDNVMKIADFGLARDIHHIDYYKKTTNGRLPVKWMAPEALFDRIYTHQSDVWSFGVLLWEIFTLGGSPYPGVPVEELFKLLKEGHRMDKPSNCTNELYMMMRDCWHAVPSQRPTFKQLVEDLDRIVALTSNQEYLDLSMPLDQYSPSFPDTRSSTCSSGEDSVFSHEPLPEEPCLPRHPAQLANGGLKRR
Procedure, shortened: as §1

[7] = target: FGFR4 (UniProt P22455); conditions: cell material: Lysate mix
Procedure, shortened: as §1

[8] = target: LIMK1 (UniProt P53667)
Sequence of LIMK1 (P53667 whole entry, looked up): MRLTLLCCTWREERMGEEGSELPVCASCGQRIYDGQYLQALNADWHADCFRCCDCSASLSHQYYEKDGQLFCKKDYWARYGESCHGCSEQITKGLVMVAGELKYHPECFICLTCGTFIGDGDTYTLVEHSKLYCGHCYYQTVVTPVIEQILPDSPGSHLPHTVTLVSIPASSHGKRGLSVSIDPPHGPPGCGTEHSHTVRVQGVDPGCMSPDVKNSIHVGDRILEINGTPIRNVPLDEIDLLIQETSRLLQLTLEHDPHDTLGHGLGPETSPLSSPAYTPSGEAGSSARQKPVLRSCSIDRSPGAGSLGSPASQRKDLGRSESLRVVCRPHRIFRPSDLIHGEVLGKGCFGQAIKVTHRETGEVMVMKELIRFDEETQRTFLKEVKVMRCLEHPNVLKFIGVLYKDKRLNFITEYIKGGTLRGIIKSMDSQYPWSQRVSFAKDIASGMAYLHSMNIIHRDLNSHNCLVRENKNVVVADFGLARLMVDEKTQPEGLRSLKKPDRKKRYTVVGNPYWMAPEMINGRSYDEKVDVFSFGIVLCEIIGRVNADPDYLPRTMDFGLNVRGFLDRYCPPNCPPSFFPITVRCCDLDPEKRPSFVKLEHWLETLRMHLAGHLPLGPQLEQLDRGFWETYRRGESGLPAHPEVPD
Procedure, shortened: as §1

[9] = target: T1, SGK2 (UniProt Q9HBY8); conditions: cell material: Lysate mix
T1 sequence (whole entry): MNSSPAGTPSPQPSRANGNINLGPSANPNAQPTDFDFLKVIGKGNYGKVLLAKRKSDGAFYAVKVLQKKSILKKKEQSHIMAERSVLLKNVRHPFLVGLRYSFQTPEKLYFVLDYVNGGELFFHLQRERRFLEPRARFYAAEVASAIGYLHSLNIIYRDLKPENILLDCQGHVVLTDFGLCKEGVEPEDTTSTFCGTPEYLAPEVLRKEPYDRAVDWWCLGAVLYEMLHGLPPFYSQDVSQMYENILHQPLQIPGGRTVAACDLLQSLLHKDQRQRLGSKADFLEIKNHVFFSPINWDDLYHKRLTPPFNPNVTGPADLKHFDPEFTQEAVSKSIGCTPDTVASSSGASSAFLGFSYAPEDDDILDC
Procedure, shortened: as §1

[10] = target: UniProt P80192
Sequence of UniProt P80192 (P80192 whole entry, looked up): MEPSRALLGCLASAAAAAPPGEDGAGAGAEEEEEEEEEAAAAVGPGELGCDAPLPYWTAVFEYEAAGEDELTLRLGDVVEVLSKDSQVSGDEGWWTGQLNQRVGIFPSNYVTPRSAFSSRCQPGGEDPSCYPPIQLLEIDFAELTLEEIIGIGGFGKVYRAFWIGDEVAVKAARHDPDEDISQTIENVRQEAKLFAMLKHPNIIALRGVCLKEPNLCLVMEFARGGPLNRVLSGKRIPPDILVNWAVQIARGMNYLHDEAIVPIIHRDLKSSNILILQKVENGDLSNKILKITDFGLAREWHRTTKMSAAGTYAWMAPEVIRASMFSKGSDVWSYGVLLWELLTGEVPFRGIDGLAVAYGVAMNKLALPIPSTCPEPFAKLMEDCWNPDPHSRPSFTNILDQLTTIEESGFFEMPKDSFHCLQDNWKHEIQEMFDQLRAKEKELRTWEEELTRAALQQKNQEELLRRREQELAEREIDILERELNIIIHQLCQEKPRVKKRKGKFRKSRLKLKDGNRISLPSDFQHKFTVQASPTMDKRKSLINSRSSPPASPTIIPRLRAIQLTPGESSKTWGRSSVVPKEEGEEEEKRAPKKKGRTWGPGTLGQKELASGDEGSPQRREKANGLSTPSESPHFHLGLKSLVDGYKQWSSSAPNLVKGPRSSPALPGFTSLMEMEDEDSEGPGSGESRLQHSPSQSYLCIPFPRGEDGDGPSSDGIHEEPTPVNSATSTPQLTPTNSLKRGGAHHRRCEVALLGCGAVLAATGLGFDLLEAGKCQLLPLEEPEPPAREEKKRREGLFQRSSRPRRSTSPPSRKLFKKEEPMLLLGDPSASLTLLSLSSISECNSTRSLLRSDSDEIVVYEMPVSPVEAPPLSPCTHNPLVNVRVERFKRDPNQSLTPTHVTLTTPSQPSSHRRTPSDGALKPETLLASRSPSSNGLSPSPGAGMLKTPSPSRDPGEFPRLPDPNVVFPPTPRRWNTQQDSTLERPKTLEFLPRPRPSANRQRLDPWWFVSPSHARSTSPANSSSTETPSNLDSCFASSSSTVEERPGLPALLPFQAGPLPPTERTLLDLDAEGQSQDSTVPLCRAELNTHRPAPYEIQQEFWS
Procedure, shortened: as §1

[11] = target: T2, UniProt Q13043
T2 sequence (whole entry): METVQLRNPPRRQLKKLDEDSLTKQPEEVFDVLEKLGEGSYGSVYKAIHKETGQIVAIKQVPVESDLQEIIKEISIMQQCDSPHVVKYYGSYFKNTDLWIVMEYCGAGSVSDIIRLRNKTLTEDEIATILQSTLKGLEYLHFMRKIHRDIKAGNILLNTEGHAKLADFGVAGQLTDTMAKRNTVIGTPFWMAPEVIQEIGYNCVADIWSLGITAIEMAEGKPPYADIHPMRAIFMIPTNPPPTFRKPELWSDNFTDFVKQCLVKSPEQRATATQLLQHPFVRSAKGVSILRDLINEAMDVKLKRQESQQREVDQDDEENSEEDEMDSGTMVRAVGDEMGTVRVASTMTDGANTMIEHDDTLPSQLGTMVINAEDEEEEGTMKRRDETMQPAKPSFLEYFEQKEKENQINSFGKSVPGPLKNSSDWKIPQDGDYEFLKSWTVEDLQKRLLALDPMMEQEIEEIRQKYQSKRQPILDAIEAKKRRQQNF
Procedure, shortened: as §1

[12] = target: T3, UniProt Q99683
T3 sequence (whole entry): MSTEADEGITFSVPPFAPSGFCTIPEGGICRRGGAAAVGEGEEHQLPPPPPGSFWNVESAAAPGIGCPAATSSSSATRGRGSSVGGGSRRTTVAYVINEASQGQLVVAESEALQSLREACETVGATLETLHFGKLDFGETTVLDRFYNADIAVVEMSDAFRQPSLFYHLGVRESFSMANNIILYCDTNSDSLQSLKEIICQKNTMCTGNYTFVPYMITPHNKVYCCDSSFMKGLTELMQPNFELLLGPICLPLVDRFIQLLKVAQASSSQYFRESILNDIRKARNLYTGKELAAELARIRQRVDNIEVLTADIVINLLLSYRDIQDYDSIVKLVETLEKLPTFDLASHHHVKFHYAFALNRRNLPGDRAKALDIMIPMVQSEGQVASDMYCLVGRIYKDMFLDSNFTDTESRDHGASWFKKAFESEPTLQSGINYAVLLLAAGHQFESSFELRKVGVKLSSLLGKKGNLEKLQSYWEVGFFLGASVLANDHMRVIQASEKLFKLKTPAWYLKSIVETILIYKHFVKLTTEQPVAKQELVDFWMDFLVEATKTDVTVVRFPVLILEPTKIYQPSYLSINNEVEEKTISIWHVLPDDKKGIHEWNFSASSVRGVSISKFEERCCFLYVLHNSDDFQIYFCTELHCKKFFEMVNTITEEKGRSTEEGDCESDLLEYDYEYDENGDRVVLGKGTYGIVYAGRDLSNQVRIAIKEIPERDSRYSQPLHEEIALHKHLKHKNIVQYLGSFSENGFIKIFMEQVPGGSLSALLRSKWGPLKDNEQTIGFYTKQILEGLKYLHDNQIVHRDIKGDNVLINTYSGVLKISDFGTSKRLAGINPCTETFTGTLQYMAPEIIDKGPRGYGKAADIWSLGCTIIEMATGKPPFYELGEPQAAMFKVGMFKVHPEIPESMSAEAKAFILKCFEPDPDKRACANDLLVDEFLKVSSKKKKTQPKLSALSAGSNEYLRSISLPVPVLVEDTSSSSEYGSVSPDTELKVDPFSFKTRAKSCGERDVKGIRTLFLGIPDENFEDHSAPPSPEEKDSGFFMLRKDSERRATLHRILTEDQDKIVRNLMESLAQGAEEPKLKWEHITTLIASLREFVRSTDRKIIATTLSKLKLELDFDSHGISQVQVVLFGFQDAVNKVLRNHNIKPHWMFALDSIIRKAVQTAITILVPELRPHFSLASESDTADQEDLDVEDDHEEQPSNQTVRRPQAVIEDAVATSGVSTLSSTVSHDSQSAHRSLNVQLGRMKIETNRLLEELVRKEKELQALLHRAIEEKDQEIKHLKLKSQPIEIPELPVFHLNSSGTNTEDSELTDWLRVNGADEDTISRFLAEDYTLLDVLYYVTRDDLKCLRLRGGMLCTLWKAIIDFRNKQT
Procedure, shortened: as §1

[13] = target: CLK2 (UniProt P49760)
Sequence of CLK2 (P49760 whole entry, looked up): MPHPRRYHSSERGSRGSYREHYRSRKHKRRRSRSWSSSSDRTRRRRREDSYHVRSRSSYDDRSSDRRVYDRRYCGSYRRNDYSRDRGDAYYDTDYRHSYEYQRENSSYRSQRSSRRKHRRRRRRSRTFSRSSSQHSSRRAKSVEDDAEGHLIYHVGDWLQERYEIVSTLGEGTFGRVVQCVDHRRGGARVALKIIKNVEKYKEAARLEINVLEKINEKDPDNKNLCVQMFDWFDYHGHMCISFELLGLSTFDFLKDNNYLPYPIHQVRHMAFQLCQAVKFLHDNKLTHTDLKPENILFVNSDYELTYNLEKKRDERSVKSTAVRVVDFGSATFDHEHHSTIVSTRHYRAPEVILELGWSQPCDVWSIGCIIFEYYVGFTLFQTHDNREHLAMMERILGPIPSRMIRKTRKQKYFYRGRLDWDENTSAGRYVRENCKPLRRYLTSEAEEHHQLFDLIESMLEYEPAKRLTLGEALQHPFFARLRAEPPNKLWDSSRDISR
Procedure, shortened: as §1

Sequence of BTK (Q06187 whole entry): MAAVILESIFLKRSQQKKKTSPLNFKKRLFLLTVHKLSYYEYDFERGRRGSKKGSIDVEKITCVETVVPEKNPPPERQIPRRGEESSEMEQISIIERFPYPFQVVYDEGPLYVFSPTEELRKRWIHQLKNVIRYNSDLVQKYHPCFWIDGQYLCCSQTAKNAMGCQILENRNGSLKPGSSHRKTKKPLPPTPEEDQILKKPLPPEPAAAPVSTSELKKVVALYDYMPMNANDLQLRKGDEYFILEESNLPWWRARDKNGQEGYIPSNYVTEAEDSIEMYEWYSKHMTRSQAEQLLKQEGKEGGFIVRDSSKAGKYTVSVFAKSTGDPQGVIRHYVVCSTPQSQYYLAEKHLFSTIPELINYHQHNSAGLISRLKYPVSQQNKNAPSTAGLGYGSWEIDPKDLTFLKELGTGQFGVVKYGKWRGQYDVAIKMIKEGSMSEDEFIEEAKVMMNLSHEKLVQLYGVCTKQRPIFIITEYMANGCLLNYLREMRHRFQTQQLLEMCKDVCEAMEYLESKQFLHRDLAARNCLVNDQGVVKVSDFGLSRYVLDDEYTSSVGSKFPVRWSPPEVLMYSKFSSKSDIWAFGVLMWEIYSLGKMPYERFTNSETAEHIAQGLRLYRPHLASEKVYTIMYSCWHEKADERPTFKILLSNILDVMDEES

SMILES	pIC50 [1]	pIC50 [2]	pIC50 ([3]; cell material: Lysate mix)	pIC50 [4]	pIC50 [5]	pIC50 ([6]; cell material: Lysate mix)	pIC50 [7]	pIC50 ([8]; cell material: Lysate mix)	pIC50 [9]	pIC50 ([10]; cell material: Lysate mix)	pIC50 ([11]; cell material: Lysate mix)	pIC50 ([12]; cell material: Lysate mix)	pIC50 ([13]; cell material: Lysate mix)	pIC50 ([13]; cell material: Jurkat cells)	pIC50 ([13]; cell material: Jurkat lysate)	pIC50 ([3]; cell material: Jurkat lysate)	pIC50 ([6]; cell material: Jurkat lysate)	pIC50 ([8]; cell material: Jurkat cells)	pIC50 ([10]; cell material: Jurkat cells)	pIC50 ([10]; cell material: Jurkat lysate)	pIC50 ([11]; cell material: Jurkat cells)	pIC50 ([11]; cell material: Jurkat lysate)	pIC50 ([12]; cell material: Jurkat cells)	pIC50 ([12]; cell material: Jurkat lysate)	pIC50 ([3]; cell material: Jurkat cells)	pIC50 ([6]; cell material: Jurkat cells)	pIC50 ([8]; cell material: Jurkat lysate)
C#CCNC(=O)c1cc(Nc2cc(C)[nH]n2)nc(N2CCN(Cc3ccc(S(=O)(=O)F)cc3)CC2)n1	< 4.52				5.56	< 4.52	< 4.52	5.62	5.8		5.98																
C#CCNC(=O)c1cc(Nc2cc(C3CC3)[nH]n2)nc(N2CCN(Cc3ccc(S(=O)(=O)F)cc3)CC2)n1			5.2	< 4.52	5.4	4.81	< 4.52	6.32	6.52	6.2	6.8	< 4.52		6.11	5.57	4.85	< 4.52	6.96	6.42	5.9	6.35	5.89	5.39	< 4.52	6.1	5.72	5.99
CCNC(=O)c1cc(Nc2cc(C)[nH]n2)nc(N2CCN(Cc3ccc(S(=O)(=O)F)cc3)CC2)n1	< 4.52	< 4.52	< 4.52	< 4.52	5.78	< 4.52	< 4.52	5.74	5.46		5.8	4.69															
CCNC(=O)c1cc(Nc2cc(C3CC3)[nH]n2)nc(N2CCN(Cc3ccc(S(=O)(=O)F)cc3)CC2)n1		5.05	5.05	< 4.52	5.3	5.24	< 4.52	6.06	5.7	5.78	6.06	< 4.52	5.55														

Now from value to compound, other results behind:

pIC50 [1]	pIC50 [2]	pIC50 ([3]; cell material: Lysate mix)	pIC50 [4]	pIC50 [5]	pIC50 ([6]; cell material: Lysate mix)	pIC50 [7]	pIC50 ([8]; cell material: Lysate mix)	pIC50 [9]	pIC50 ([10]; cell material: Lysate mix)	pIC50 ([11]; cell material: Lysate mix)	pIC50 ([12]; cell material: Lysate mix)	pIC50 ([13]; cell material: Lysate mix)	SMILES	pIC50 ([13]; cell material: Jurkat cells)	pIC50 ([13]; cell material: Jurkat lysate)	pIC50 ([3]; cell material: Jurkat lysate)	pIC50 ([6]; cell material: Jurkat lysate)	pIC50 ([8]; cell material: Jurkat cells)	pIC50 ([10]; cell material: Jurkat cells)	pIC50 ([10]; cell material: Jurkat lysate)	pIC50 ([11]; cell material: Jurkat cells)	pIC50 ([11]; cell material: Jurkat lysate)	pIC50 ([12]; cell material: Jurkat cells)	pIC50 ([12]; cell material: Jurkat lysate)	pIC50 ([3]; cell material: Jurkat cells)	pIC50 ([6]; cell material: Jurkat cells)	pIC50 ([8]; cell material: Jurkat lysate)
< 4.52	< 4.52	< 4.52	< 4.52	< 4.52	< 4.52	< 4.52	< 4.52	< 4.52	< 4.52	4.74	< 4.52		Cc1cc(Nc2cc(C(=O)NCCNC(=O)OC3CC/C=C/CCC3)nc(N3CCN(Cc4ccc(S(=O)(=O)F)cc4)CC3)n2)n[nH]1 (configuration not stated)														
< 4.52		< 4.52	< 4.52	< 4.52	< 4.52	< 4.52			< 4.52	4.99	< 4.52	< 4.52	O=C(NCCNC(=O)c1cc(Nc2cc(C3CC3)[nH]n2)nc(N2CCN(Cc3ccc(S(=O)(=O)F)cc3)CC2)n1)OC1CC/C=C/CCC1 (configuration not stated)	5.92	< 4.52	< 4.52	< 4.52	6.66	6.19	< 4.52	5.98	4.72	4.75	< 4.52			

From the supplement of paper PMC12076712
